{
  "source": "patent US6812247B2",
  "about": "“Organometallic complex” (Academia Sinica, priority 2001, dated 2004)",
  "key": {"[1]": {"tested_on": "2′-deoxyguanosine", "assay": "Binding and cleaving mechanism with 2'-deoxyguanosine, LC-mass", "procedure": "As a comparison, a reaction involving 2′-deoxyguanosine and complex 1 was carried out. […] As a result, cleavage at a guanine site required assistance from an external base (e.g., piperidine). In another experiment, an excess of complex 1 was added to a 2′-deoxyguanosine solution, followed by piperidine treatment. An intermediate was detected, at a yield of 42%, with a signal at 1063.9 for (M+H^+) as analyzed by an electron spray ionization detector in LC-mass chromatogram. The intermediate was able to give a cyclization product, at a yield of 80%, with a signal at 792.0 for (M+H^+) upon 350-nm UV light irradiation, but not in the dark. The scheme below depicts the just-described reaction: [drawing 6]"}, "[2]": {"tested_on": "supercoiled circular φX174 RFI DNA", "assay": "Single-strand DNA cleavage at various pH's, 350 nm UV, agarose gel", "assay_type": "biochemical", "conditions": "complex 5.0 μM", "procedure": "Cleavage at Various pH's: A reaction mixture (10 μL) containing supercoiled circular φX174 RFI DNA stock solution (50 μM/base pair), complex 1 (5.0 μM), and a phosphate buffer (0.10 M, pH 5.0, 6.0, 7.0, and 8.0) in a Pyrex vial was preincubated at 37° C. The reaction mixture was then irradiated with 350 nm UV light (32-W) for 2.0 h at room temperature. After adding a gel-loading buffer (0.25% bomophenol blue, 0.25% xylene cyanol, and 30% glycerol), the reaction mixture was loaded on a 1% agarose gel, followed by ethidium bromide staining. The gel was visualized by a 312-nm UV transilluminator and photographed by a FB-PDC-34 camera. Supercoiled circular DNA and cleaved DNA were clearly seen from the gel."}, "[3]": {"tested_on": "160-bp dsDNA fragment from the 501-660 fragment of pBR322 DNA", "assay": "Site-specific DNA cleavage of 5'-32P-labeled fragment, polyacrylamide gel against Maxam-Gilbert markers", "assay_type": "biochemical", "conditions": "complex 20-100 μM, 350-nm UV", "procedure": "A 160-bp dsDNA fragment was prepared from the 501-660 fragment of pBR322 DNA. It was amplified by the polymerase chain reaction (Bailly & Waring (1995) J. Am. Chem. Soc. 117:7311; Bailly et al. (1993) J. Am. Chem. Soc. 115:3784; and Sayers & Waring (1993) Biochemistry 32:9094), and labeled at the 5′-terminus with γ-[^32P]-ATP and T4 polynucleotide kinase. A reaction mixture containing a 5′-terminus labeled ^32P-DNA solution, a phosphate buffer (0.10 M, pH 6.0), and complex 1 (20-100 μM) in a Pyrex vial was preincubated at 37° C. for 30 min. The reaction mixture was irradiated with 350-nm UV light under aerobic conditions for 2.0 h at room temperature. The bound metal complexes on DNA fragments were removed by using 0.30 N NaCN (pH=11) at 37° C. for 8.0 h (Schwartz et al. (1990) J. Am. Chem. Soc. 112:3673; and Zou et al. (1994) Biochemistry 33:5404). The reaction mixture was then quenched with either a gel-loading buffer or 95% ethanol. […] The samples and the Maxam-Gilbert markers were analyzed using 10% polyacrylamide/8.0 M urea gel. […] Quantitation of relative intensities of DNA fragments was performed using a Microtek scanner and NIH 1.60 image program.\nThe detected DNA fragments were compared with Maxam-Gilbert markers on an autoradiogram, and quantitated by a computer-assisted program."}, "[4]": {"tested_on": "supercoiled circular φX174 RFI DNA", "assay": "Single-strand DNA cleavage at various complex concentrations, 350 nm UV, agarose gel", "assay_type": "biochemical", "conditions": "for % form I (supercoiled circular DNA) / % form II (cleaved DNA) / (% form II)/(% form I): pH 6.0", "procedure": "The mixture was irradiated with 350 nm UV light (32-W) for 2.0 h at room temperature. After adding a gel-loading buffer (0.25% bromophenol blue, 0.25% xylene cyanol, and 30% glycerol), the reaction mixture was loaded on a 1% agarose gel, followed by ethidium bromide staining. The gel was visualized by a 312-nm UV transilluminator and photographed by a FB-PDC-34 camera. Supercoiled circular DNA (form I) and cleaved DNA (form II) were clearly seen from the gel."}, "[5]": {"tested_on": "double helical oligonucleotide d(ATAT)2", "assay": "DNA binding and cleaving mechanism with oligonucleotide, LC-mass", "conditions": "1:1, pH 6.0, in the dark 2.0 h", "procedure": "A double helical oligonucleotide d(ATAT)2 was prepared and added to a phosphate buffer solution (pH=6.0) containing complex 1 (1:1). The solution was kept in the dark for 2.0 h. An intermediate was detected, at a yield of 57%, with a signal at 650.1 for (M+H^+) as analyzed by an electron spray ionization detector in LC-mass chromatogram. Then, the solution was irradiated with 350 nm-UV light for 2.0 h at room temperature. A product was detected with a signal at 456.1 for (M+H^+). […] Then an intramolecular cyclization took place to remove the DMSO and to form a covalent bond between the N-7 nitrogen atom and the platinum in complex 1, resulting in the oligonucleotide cleavage."}, "[6]": {"conditions": "complex 1.0 μM, 350 nm UV 2.0 h"}, "[7]": {"conditions": "complex 2.5 μM, 350 nm UV 2.0 h"}, "[8]": {"conditions": "complex 5.0 μM, 350 nm UV 2.0 h"}},
  "data": [
    {"smiles": "C[S+](C)(=O)[Pt]1([Cl])[O][n+]2ccccc2[S]1", "note": "(centres unmarked) [complex 1, PtCl(DMSO)[η^2—C5H4SN(O)]]", "values": [
      {"measurement": "binding site on nucleic acid", "setting": "[1]", "value": "bound to the C-2 amino on a guanine"},
      {"measurement": "yield of cyclization product from intermediate", "setting": "[1]; 350-nm UV light irradiation, not in the dark", "value": 80, "unit": "%"},
      {"measurement": "yield of complex-bound intermediate", "setting": "[1]; excess of complex 1, piperidine treatment", "value": 42, "unit": "%"},
      {"measurement": "DNA forms seen on gel", "setting": "[2]; pH 5.0, 6.0, or 7.0, 350 nm UV 2.0 h", "value": "only cleaved DNA was observed"},
      {"measurement": "DNA forms seen on gel", "setting": "[2]; pH 8.0, 350 nm UV 2.0 h", "value": "both supercoiled circular DNA and cleaved DNA were observed"},
      {"measurement": "site of DNA cleavage", "setting": "[3]; with hot piperidine treatment", "value": "cleaved DNA at purine residues"},
      {"measurement": "site of DNA cleavage", "setting": "[3]; without piperidine treatment", "value": "at adenine residues"},
      {"measurement": "% form I (supercoiled circular DNA)", "setting": "[4]; [6]", "value": 37, "unit": "%"},
      {"measurement": "% form II (cleaved DNA)", "setting": "[4]; [6]", "value": 63, "unit": "%"},
      {"measurement": "(% form II)/(% form I)", "setting": "[4]; [6]", "value": 1.7},
      {"measurement": "% form I (supercoiled circular DNA)", "setting": "[4]; [7]", "value": 20, "unit": "%"},
      {"measurement": "% form II (cleaved DNA)", "setting": "[4]; [7]", "value": 80, "unit": "%"},
      {"measurement": "(% form II)/(% form I)", "setting": "[4]; [7]", "value": 4.0},
      {"measurement": "% form I (supercoiled circular DNA)", "setting": "[4]; [8]", "value": 7.1, "unit": "%"},
      {"measurement": "% form II (cleaved DNA)", "setting": "[4]; [8]", "value": 93, "unit": "%"},
      {"measurement": "(% form II)/(% form I)", "setting": "[4]; [8]", "value": 13},
      {"measurement": "% form I (supercoiled circular DNA)", "setting": "[4]; complex 500 μM, in the dark", "value": 93, "unit": "%"},
      {"measurement": "% form II (cleaved DNA)", "setting": "[4]; complex 500 μM, in the dark", "value": 7.0, "unit": "%"},
      {"measurement": "(% form II)/(% form I)", "setting": "[4]; complex 500 μM, in the dark", "value": 0.070},
      {"measurement": "DNA cleaving activity", "setting": "[4]; concentration as low as 1.0 μM", "value": "very strong DNA cleaving activity"},
      {"measurement": "cleavage of single-strand DNA", "setting": "[4]; in the dark", "value": "did not occur"},
      {"measurement": "binding site on nucleic acid", "setting": "[5]", "value": "bound to the C-6 amino on an adenine"},
      {"measurement": "yield of complex-bound intermediate", "setting": "[5]", "value": 57, "unit": "%"}
    ]}
  ]
}
